Measurements: patent publication US10435396B2, “2-substituted indazoles, methods for producing same, pharmaceutical preparations that contain same, and use of same to produce drugs” (Bayer Pharma Aktiengesellschaft, priority 2016, dated 2019)

What was measured:
human IRAK4 = human IRAK4 (Homo sapiens (Human), UniProt Q9NWZ3); experiment: IRAK4 kinase assay (IRAK4 TR-FRET assay); type: biochemical; conditions: 1 mM ATP
Protocol: The IRAK4-inhibitory activity of the substances according to the invention was measured in the IRAK4 TR-FRET assay (TR-FRET=Time Resolved Fluorescence Resonance Energy Transfer) described hereinafter.
Recombinant fusion protein from N-terminal GST (glutathione S-transferase) and human IRAK4, expressed in baculovirus-infected insect cells (Hi5, BTI-TN-5B1-4, cell line purchased from Invitrogen, catalogue No. B855-02) and purified via affinity chromatography, was used as enzyme. The substrate used for the kinase reaction was the biotinylated peptide biotin-Ahx-[…] (C-terminus in amide form) which can be purchased, for example, from Biosyntan GmbH (Berlin-Buch).
For the assay, 11 different concentrations in the range from 20 μM to 0.073 nM were prepared from a 2 mM solution of the test substance in DMSO. 50 nl of the respective solution were pipetted into a black low-volume 384-well microtitre plate (Greiner Bio-One, Frickenhausen, Germany), 2 μl of a solution of IRAK4 in assay buffer [50 mM HEPES pH 7.5, 5 mM MgCl2, 1.0 mM dithiothreitol, 30 μM activated sodium orthovanadate, 0.1% (w/v) of bovine gamma-globulin (BGG) 0.04% (v/v) nonidet-P40 (Sigma)] were added and the mixture was incubated for 15 min to allow prebinding of the substances to the enzyme prior to the kinase reaction. The kinase reaction was then started by addition of 3 μl of a solution of adenosine triphosphate (ATP, 1.67 mM=final concentration in 5 μl of assay volume: 1 mM) and peptide substrate (0.83 μM=final concentration in 5 μl assay volume: 0.5 μM) in assay buffer, and the resulting mixture was incubated at 22° C. for the reaction time of 45 min. The concentration of the IRAK4 was adjusted to the respective activity of the enzyme and set such that the assay was carried out in the linear range. Typical concentrations were in the order of about 0.2 nM. The reaction was stopped by addition of 5 μl of a solution of TR-FRET detection reagents [0.1 μM streptavidin-XL665 (Cisbio Bioassays; France, catalogue No. 610SAXLG)] and 1.5 nM anti-phosphoserine antibody [Merck Millipore, “STK Antibody”, catalogue No. 35-002] and 0.6 nM LANCE EU-W1024-labelled anti-mouse-IgG antibody (Perkin-Elmer, product No. AD0077; alternatively, it is possible to use a terbium cryptate-labelled anti-mouse-IgG antibody from Cisbio Bioassays) in aqueous EDTA solution (100 mM EDTA, 0.4% [w/v] bovine serum albumin [BSA] in 25 mM HEPES pH 7.5).
The resulting mixture was incubated at 22° C. for 1 h to allow formation of a complex of the biotinylated phosphorylated substrate and the detection reagents. The amount of the phosphorylated substrate was then evaluated by measuring the resonance energy transfer from europium chelate-labelled anti-mouse-IgG antibody to streptavidin-XL665. To this end, the fluorescence emissions at 620 nm and 665 nm were measured after excitation at 350 nm in a TR-FRET measuring instrument, for example a Rubystar (BMG Labtechnologies, Offenburg, Germany) or a Viewlux (Perkin-Elmer). The ratio of the emissions at 665 nm and 622 nm was taken as a measure of the amount of phosphorylated substrate. The data were normalized (enzyme reaction without test substance=0% inhibition; all other assay components but no enzyme=100% inhibition). Typically, the test substances were tested on the same microtitre plates at 11 different concentrations in the range from 20 μM to 0.073 nM (20 μM, 5.7 μM, 1.6 μM, 0.47 μM, 0.13 μM, 38 nM, 11 nM, 3.1 nM, 0.89 nM, 0.25 nM and 0.073 nM). The dilution series were prepared prior to the assay (2 mM to 7.3 nM in 100% DMSO) by serial dilutions. The IC50 values were calculated using a 4-parameter fit.

[1] = test system: secretion of TNF-α in THP-1 cells; experiment: TNF-α secretion in THP-1 cells (LPS-triggered); type: cell-based, human; conditions: Homo sapiens, THP-1, 17 h, LPS 0.05 μg/ml, read-out: IC50 with respect to the secretion of TNF-α in THP-1 cells
Protocol: TNF-α Secretion in THP-1 Cells
With the aid of this test, it is possible to test substances for their ability to inhibit secretion of TNF-α (tumour necrosis factor alpha) in THP-1 cells (human monocytic acute leukaemia cell line). TNF-α is a cytokine involved in inflammatory processes. In this test, TNF-α secretion is triggered by incubation with bacterial lipopolysaccharide (LPS).
THP-1 cells are kept in continuous suspension cell culture [RPMI 1460 medium with L-Glutamax (Gibco, Cat No. 61870-044) supplemented with foetal calf serum (FCS) 10% (Invitrogen, Cat No. 10082-147), 1% penicillin/streptomycin (Gibco BRL, Cat No. 15140-114)] and should not exceed a cell concentration of 1×10^6 cells/ml. The assay is carried out in cell culture medium (RPMI 1460 medium with L-Glutamax supplemented with FCS 10%).
In each case 2-2.5 μl of the cell suspension (corresponds to 4000 cells) per well were dispensed into a 384-well test plate (Greiner, Cat No. 784076), in each of which 40-50 nl substance had been dissolved in 100% DMSO. This was done using […] in the range from 20 μM to 0.073 nM for each substance. The cells were incubated at room temperature for 15 min. 2-2.5 μl of 0.1 μg/ml LPS (Sigma, Escherichia coli 055:B5, Cat. No. L5418) dissolved in cell culture medium (final concentration 0.05 μg/ml) were then dispensed into each well. As neutral control, cells were treated with 0.05 μg/ml LPS and 1% DMSO and, as inhibitor control, with 1% DMSO only.
The plates were centrifuged at 80 g for 30 s and incubated at 37° C., 5% CO2 and 95% atmospheric humidity for 17 h. The amount of TNF-α was determined using the TNF-alpha HTRF Detection Kit (Cisbio, Cat No. 62TNFPEB/C). To this end, 2 μl of the detection solution in each case, consisting of anti-TNF-α-XL665 conjugate and anti-TNF-α-cryptate conjugate dissolved in the reconstitution buffer in accordance with the manufacturer's instructions, were added for the HTRF (Homogeneous Time-Resolved Fluorescence) test. After the addition, the mixture was incubated either at room temperature for 3 h or at 4° C. overnight. The signals were then read at 620/665 nm using an HTRF-enabled measuring instrument such as the BMG PheraStar.
The activity of the substances is expressed as the ratio between neutral and inhibitor control in percent. The IC50 values were calculated using a 4-parameter fit.

Sequence of human IRAK4 (Q9NWZ3 whole entry): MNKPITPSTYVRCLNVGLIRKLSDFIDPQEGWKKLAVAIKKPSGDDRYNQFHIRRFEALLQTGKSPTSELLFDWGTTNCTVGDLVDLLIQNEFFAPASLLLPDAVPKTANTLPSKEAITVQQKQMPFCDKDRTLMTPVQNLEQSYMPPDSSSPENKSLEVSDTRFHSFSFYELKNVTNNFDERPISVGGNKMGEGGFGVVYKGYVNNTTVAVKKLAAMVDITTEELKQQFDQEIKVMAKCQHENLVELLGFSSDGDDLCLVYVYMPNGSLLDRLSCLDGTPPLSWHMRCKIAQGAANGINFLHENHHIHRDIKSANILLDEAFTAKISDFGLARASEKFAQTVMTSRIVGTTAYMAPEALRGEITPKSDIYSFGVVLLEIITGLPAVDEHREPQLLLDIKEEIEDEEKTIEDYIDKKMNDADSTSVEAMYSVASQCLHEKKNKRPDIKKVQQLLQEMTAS

Row | SMILES | IC50 (human IRAK4) | IC50 [1]
1 | O=C(Nc1cc2cn(C3CCOCC3)nc2cc1Cl)c1cccc(C(F)F)n1 [Example 31, N-[6-Chloro-2-(tetrahydro-2H-pyran-4-yl)-2H-indazol-5-yl]-6-(difluoromethyl)pyridine-2-carboxamide] | 22 nM | 90 nM
2 | COc1cc2nn(C3CCN(CC(F)(F)F)CC3)cc2cc1NC(=O)c1cccc(C(F)(F)F)n1 [Example 3, N-{6-Methoxy-2-[1-(2,2,2-trifluoroethyl)piperidin-4-yl]-2H-indazol-5-yl}-6-(trifluoromethyl)pyridine-2-carboxamide] | 7 nM | 750 nM
3 | COc1cc2nn(C3CCN(S(=O)(=O)NC(C)=O)CC3)cc2cc1NC(=O)c1cccc(C(F)(F)F)n1 [Example 8, N-{2-[1-(Acetylsulphamoyl)piperidin-4-yl]-6-methoxy-2H-indazol-5-yl}-6-(trifluoromethyl)pyridine-2-carboxamide] | 8 nM | 520 nM
4 | COc1cc2nn(C3CCOCC3)cc2cc1NC(=O)c1nc(-c2ccncc2)no1 [Example 48, N-[6-Methoxy-2-(tetrahydro-2H-pyran-4-yl)-2H-indazol-5-yl]-3-(pyridin-4-yl)-1,2,4-oxadiazole-5-carboxamide] | 691 nM | 
5 | COc1cc2nn(C3CCOCC3)cc2cc1NC(=O)c1nc(C(F)(F)F)cs1 [Example 47, N-[6-Methoxy-2-(tetrahydro-2H-pyran-4-yl)-2H-indazol-5-yl]-4-(trifluoromethyl)-1,3-thiazole-2-carboxamide] | 65 nM | 
6 | O=C(Nc1cc2cn(C3CCOCC3)nc2cc1Cl)c1nc(C(F)(F)F)cs1 [Example 50, N-[6-Chloro-2-(tetrahydro-2H-pyran-4-yl)-2H-indazol-5-yl]-4-(trifluoromethyl)-1,3-thiazole-2-carboxamide] | 496 nM | 
7 | COc1cc2nn(C3CCOCC3)cc2cc1NC(=O)c1ccn(C(F)F)n1 [Example 51, 1-(Difluoromethyl)-N-[6-methoxy-2-(tetrahydro-2H-pyran-4-yl)-2H-indazol-5-yl]-1H-pyrazole-3-carboxamide] | 6 nM | 
8 | COCCN1CCC(n2cc3cc(NC(=O)c4cccc(C(F)(F)F)n4)c(OC)cc3n2)CC1 [Example 58, N-{6-Methoxy-2-[1-(2-methoxyethyl)piperidin-4-yl]-2H-indazol-5-yl}-6-(trifluoromethyl)pyridine-2-carboxamide] | 2 nM | 
9 | COc1cc2nn(C3CCS(=O)(=O)CC3)cc2cc1NC(=O)c1cccc(C(F)(F)F)n1 [Example 11, N-[2-(1,1-Dioxidotetrahydro-2H-thiopyran-4-yl)-6-methoxy-2H-indazol-5-yl]-6-(trifluoromethyl)pyridine-2-carboxamide] | 3 nM | 
10 | CN1CCC(n2cc3cc(NC(=O)c4cccc(C(F)(F)F)n4)c(C(N)=O)cc3n2)CC1 [Example 57, 2-(1-Methylpiperidin-4-yl)-5-({[6-(trifluoromethyl)pyridin-2-yl]carbonyl}amino)-2H-indazole-6-carboxamide] | 2 nM | 
11 | COC(=O)c1cc2nn(C3CCN(C)CC3)cc2cc1NC(=O)c1cccc(C(F)(F)F)n1 [Example 55, Methyl 2-(1-methylpiperidin-4-yl)-5-({[6-(trifluoromethyl)pyridin-2-yl]carbonyl}amino)-2H-indazole-6-carboxylate] | 1 nM | 
12 | CC(C)(O)c1cc2nn([C@H]3CCS(=O)(=O)C3)cc2cc1NC(=O)c1cccc(C(F)(F)F)n1 [Example 41, N-{2-[(3S)-1,1-Dioxidotetrahydrothiophen-3-yl]-6-(2-hydroxypropan-2-yl)-2H-indazol-5-yl}-6-(trifluoromethyl)pyridine-2-carboxamide] | 16 nM | 

Other lines, results leading:

Row | IC50 (human IRAK4) | IC50 [1] | SMILES
13 | 1 nM |  | COc1cc2nn(C3CCN(CCN(C)C)CC3)cc2cc1NC(=O)c1cccc(C(F)(F)F)n1 [Example 9, N-(2-{1-[2-(Dimethylamino)ethyl]piperidin-4-yl}-6-methoxy-2H-indazol-5-yl)-6-(trifluoromethyl)pyridine-2-carboxamide]
14 | 34 nM | 280 nM | CC(C)(O)c1cccc(C(=O)Nc2cc3cn(C4CCS(=O)(=O)CC4)nc3cc2Cl)n1 [Example 32, N-[6-Chloro-2-(1,1-dioxidotetrahydro-2H-thiopyran-4-yl)-2H-indazol-5-yl]-6-(2-hydroxypropan-2-yl)pyridine-2-carboxamide]
15 | 2 nM |  | COc1cc2nn(C3CCN(C4CCN(C)CC4)CC3)cc2cc1NC(=O)c1cccc(C(F)(F)F)n1 [Example 6, N-[6-Methoxy-2-(1′-methyl-1,4′-bipiperidin-4-yl)-2H-indazol-5-yl]-6-(trifluoromethyl)pyridine-2-carboxamide]
16 | 1 nM |  | NC(=O)c1cc2nn(C3CCNCC3)cc2cc1NC(=O)c1cccc(C(F)(F)F)n1 [Example 53, 2-(Piperidin-4-yl)-5-({[6-(trifluoromethyl)pyridin-2-yl]carbonyl}amino)-2H-indazole-6-carboxamide]
17 | 4 nM |  | CC(C)(O)CCN1CCC(n2cc3cc(NC(=O)c4cccc(C(F)(F)F)n4)c(C(N)=O)cc3n2)CC1 [Example 56, 2-[1-(3-Hydroxy-3-methylbutyl)piperidin-4-yl]-5-({[6-(trifluoromethyl)pyridin-2-yl]carbonyl}amino)-2H-indazole-6-carboxamide]
18 | 3780 nM |  | COc1cc2nn(C3CCOCC3)cc2cc1NC(=O)c1nc(C)no1 [Example 49, N-[6-Methoxy-2-(tetrahydro-2H-pyran-4-yl)-2H-indazol-5-yl]-3-methyl-1,2,4-oxadiazole-5-carboxamide]
19 | 75 nM |  | O=C(Nc1cc2cn(C3CCNCC3)nc2cc1C(=O)O)c1cccc(C(F)(F)F)n1 [Example 54, 2-(Piperidin-4-yl)-5-({[6-(trifluoromethyl)pyridin-2-yl]carbonyl}amino)-2H-indazole-6-carboxylic Acid]
